The source made the active and inactive calls. The calls are words filed in the database; no cut-off is given here.
What was measured:
MKN-45 [1] = assay: Antitumor activity against human MKN-45 cells xenografted in BALB/c nude mouse assessed as decrease in tumor volume at 25 mg/kg, po qd measured for 5 weeks; type: functional, organism-based
MKN-45 [2] = assay: Antitumor activity against human MKN-45 cells xenografted in po dosed BALB/c nude mouse assessed as decrease in tumor volume measured for 5 weeks; type: functional, organism-based; conditions: dose 25-50 mg/kg, DDE = dose-dependent effect
[3] = target: T1, Signal transducer and activator of transcription 3 (Homo sapiens, UniProt P40763); assay: Inhibition of STAT3 phosphorylation at Ser727 residue in human MKN-45 cells upto 40 nM incubated upto 24 hrs by Western blotting analysis; type: cell-based
T1 sequence (P40763 whole entry): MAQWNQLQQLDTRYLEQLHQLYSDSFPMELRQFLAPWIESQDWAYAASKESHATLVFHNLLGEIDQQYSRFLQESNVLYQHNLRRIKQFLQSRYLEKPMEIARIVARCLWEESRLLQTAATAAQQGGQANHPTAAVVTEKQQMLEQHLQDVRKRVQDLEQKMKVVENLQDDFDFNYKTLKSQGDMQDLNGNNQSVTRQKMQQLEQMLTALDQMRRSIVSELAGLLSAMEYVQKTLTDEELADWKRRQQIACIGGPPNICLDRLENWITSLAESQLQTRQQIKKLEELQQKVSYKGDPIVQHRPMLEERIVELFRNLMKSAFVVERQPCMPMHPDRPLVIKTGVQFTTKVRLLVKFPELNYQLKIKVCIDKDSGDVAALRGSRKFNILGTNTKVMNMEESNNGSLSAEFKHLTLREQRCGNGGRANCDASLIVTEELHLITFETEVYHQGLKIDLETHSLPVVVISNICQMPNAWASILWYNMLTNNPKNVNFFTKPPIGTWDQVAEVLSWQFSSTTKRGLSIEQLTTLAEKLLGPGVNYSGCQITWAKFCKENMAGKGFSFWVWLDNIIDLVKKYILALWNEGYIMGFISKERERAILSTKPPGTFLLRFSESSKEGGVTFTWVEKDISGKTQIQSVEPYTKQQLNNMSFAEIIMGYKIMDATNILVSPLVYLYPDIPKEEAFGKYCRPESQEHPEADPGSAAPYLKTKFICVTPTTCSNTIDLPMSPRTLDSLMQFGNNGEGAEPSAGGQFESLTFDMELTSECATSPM

[4] = Toxicity in […] mouse xenografted with human MKN-45 cells assessed as heart damage at 25 to 50 mg/kg, po qd administered for 5 weeks by H and E staining based analysis; type: organism-based; conditions: in vivo, 840 h, dose 25-50 mg/kg
MKN-45 [5] = assay: Inhibition of mitochondrial respiration in human MKN-45 cells assessed as maximal oxygen consumption rate at 1 to 100 nM incubated for 1 hr by Seahorse XF24 extracellular flux analyzer; type: functional, cell-based; conditions: dose 1-100 nM
AGS [6] = assay: Induction of apoptosis in human AGS cells assessed as early apoptic cells 10 nM incubated for 48 hrs by FITC-annexin V/propidium iodide staining based flow cytometry (reference value: 0.55%); type: functional
MKN-45 [7] = assay: Induction of apoptosis in human MKN-45 cells assessed as late apoptic cells 20 nM incubated for 48 hrs by FITC-annexin V/propidium iodide staining based flow cytometry (reference value: 17.9%); type: functional
AGS [8] = assay: Induction of apoptosis in human AGS cells assessed as necrotic cells 10 nM incubated for 48 hrs by FITC-annexin V/propidium iodide staining based flow cytometry (reference value: 2.70%); type: functional
[9] = target: T1, Signal transducer and activator of transcription 3; assay: Inhibition of STAT3 in human MGC-803 cells assessed as downregulation of cyclin D1 expression incubated up to 24 hrs by western blot analysis; type: cell-based; conditions: dose <= 40.0 nM, DDE = dose-dependent effect
AGS [10] = assay: Potency index, ratio of IC50 for BBI608 to IC50 for test compound for antiproliferative activity against human AGS cells assessed as reduction in cell viability incubated for 72 hrs by MTS assay; type: functional
[11] = target: T1, Signal transducer and activator of transcription 3; assay: Inhibition of STAT3 in human MKN-45 cells assessed as downregulation of c-myc expression at 10 to 40 nM incubated for 24 hrs by RT-PCR analysis; type: cell-based; conditions: dose 10-40 nM
[12] = target: T1, Signal transducer and activator of transcription 3; assay: Inhibition of STAT3 in human MGC-803 cells assessed as downregulation of c-Myc expression incubated up to 24 hrs by western blot analysis; type: cell-based; conditions: dose <= 40.0 nM, DDE = dose-dependent effect
[13] = target: T1, Signal transducer and activator of transcription 3; assay: Inhibition of STAT3 in human MGC-803 cells assessed as downregulation of c-Myc expression up to 40 nM by western blot analysis; type: cell-based; conditions: time <= 24.0 hrs, DDE = dose-dependent effect
[14] = target: T1, Signal transducer and activator of transcription 3; assay: Binding affinity to human STAT3 transfected in HEK293T cells assessed as change in melting temperature at 5 uM by thermal shift assay; type: cell-based
MKN-45 [15] = assay: In vivo inhibition of STAT3 phosphorylation at Tyr705 residue in human MKN-45 cells xenografted in BALB/c nude mouse at 25 to 50 mg/kg, po qd administered for 5 weeks by western blot analysis; type: functional, organism-based; conditions: dose 25-50 mg/kg
Cytochrome P450 2D6 = Cytochrome P450 2D6 (Homo sapiens, UniProt P10635); assay: Inhibition of CYP2D6 in human liver microsome; type: ADME, microsomes
Cytochrome P450 2D6, sequence (P10635 whole entry): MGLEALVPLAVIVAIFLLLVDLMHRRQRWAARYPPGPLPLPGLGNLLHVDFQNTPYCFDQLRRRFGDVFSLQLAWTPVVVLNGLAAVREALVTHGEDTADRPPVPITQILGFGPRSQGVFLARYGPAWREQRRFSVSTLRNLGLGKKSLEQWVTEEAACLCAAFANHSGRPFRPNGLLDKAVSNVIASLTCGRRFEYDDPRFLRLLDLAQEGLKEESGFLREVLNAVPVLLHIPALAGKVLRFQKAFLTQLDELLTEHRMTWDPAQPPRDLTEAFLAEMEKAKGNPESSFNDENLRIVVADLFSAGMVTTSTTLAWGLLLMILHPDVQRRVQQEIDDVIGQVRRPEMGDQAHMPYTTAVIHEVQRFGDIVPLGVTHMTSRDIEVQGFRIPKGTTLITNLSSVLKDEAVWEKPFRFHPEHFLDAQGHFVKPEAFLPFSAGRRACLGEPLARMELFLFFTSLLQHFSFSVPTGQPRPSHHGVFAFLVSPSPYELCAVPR

[16] = target: T1, Signal transducer and activator of transcription 3; assay: Inhibition of STAT3 phosphorylation at Tyr705 residue in human MKN-45 cells incubated upto 24 hrs by Western blotting analysis; type: cell-based; conditions: dose <= 40.0 nM, DDE = dose-dependent effect
Cytochrome P450 2C19 = Cytochrome P450 2C19 (Homo sapiens, UniProt P33261); assay: Inhibition of CYP2C19 in human liver microsome; type: ADME, microsomes
Cytochrome P450 2C19, sequence (P33261 whole entry): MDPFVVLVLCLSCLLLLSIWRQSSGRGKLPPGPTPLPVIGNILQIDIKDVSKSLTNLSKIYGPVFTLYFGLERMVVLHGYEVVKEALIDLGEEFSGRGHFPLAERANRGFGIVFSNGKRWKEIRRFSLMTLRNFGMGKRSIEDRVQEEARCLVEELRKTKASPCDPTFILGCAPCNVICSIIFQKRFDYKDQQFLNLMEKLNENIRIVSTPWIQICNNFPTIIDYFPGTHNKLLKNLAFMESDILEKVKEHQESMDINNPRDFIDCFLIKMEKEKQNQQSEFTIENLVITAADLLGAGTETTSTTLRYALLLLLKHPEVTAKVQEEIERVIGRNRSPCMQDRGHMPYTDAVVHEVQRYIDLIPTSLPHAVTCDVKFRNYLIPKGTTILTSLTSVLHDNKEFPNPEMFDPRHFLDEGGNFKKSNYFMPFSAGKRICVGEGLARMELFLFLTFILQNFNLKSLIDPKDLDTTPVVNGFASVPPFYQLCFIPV

AGS [17] = assay: Antiproliferative activity against human AGS cells assessed as reduction in cell viability incubated for 72 hrs by MTS assay; type: functional, cell-based
[18] = Antiproliferative activity against human HPNE cells assessed as cell viability measured upto 1 uM incubated for 72 hrs by MTS assay; type: toxicity, cell-based; conditions: htert-hpne
[19] = target: T1, Signal transducer and activator of transcription 3; assay: Inhibition of STAT3 in human MKN-45 cells assessed as downregulation of Survivin expression at 10 to 40 nM incubated for 24 hrs by RT-PCR analysis; type: cell-based; conditions: dose 10-40 nM
[20] = target: T1, Signal transducer and activator of transcription 3; assay: Inhibition of STAT3 phosphorylation at Tyr705 residue in human MGC-803 cells upto 40 nM incubated upto 24 hrs by Western blotting analysis; type: cell-based
[21] = target: T1, Signal transducer and activator of transcription 3; assay: Inhibition of STAT3 phosphorylation at Tyr705 residue in human MGC-803 cells upto 40 nM by Western blotting analysis; type: cell-based; conditions: time <= 24.0 hrs, TDE = time-dependent effect
[22] = target: T1, Signal transducer and activator of transcription 3; assay: Binding affinity to human STAT3 transfected in MKN-45 cells assessed as change in melting temperature at 5 uM by thermal shift assay; type: cell-based
[23] = target: T1, Signal transducer and activator of transcription 3; assay: Binding affinity to human STAT3 (127 to 722 residues) assessed as dissociation constant by MST assay
[24] = target: T1, Signal transducer and activator of transcription 3; assay: Inhibition of STAT3 phosphorylation at Ser727 residue in human MGC-803 cells upto 40 nM by Western blotting analysis; type: cell-based; conditions: time <= 24.0 hrs, TDE = time-dependent effect
MKN-45 [25] = assay: Inhibition of mitochondrial respiration in human MKN-45 cells assessed as decrease in basal oxygen consumption rate at 1 to 100 nM incubated for 1 hr by Seahorse XF24 extracellular flux analyzer; type: functional, cell-based; conditions: dose 1-100 nM
[26] = Toxicity in BALB/c nude mouse xenografted with human MKN-45 cells assessed as lung damage at 25 to 50 mg/kg, po qd administered for 5 weeks by H and E staining based analysis; type: organism-based; conditions: in vivo, 840 h, dose 25-50 mg/kg
[27] = AUC (0 to t) in ICR mouse plasma at 1 mg/kg, iv measured up to 24 hrs by LC-MS/MS analysis; type: ADME, organism-based; set-up: dose 1 mg/kg, time < 24 hrs, route iv
[28] = target: T1, Signal transducer and activator of transcription 3; assay: Inhibition of STAT3 phosphorylation at Tyr705 residue in human AGS cells incubated upto 24 hrs by Western blotting analysis; type: cell-based; conditions: dose <= 40.0 nM, DDE = dose-dependent effect
MKN-45 [29] = assay: Induction of apoptosis in human MKN-45 cells assessed as viable cells at 20 nM incubated for 48 hrs by FITC-annexin V/propidium iodide staining based flow cytometry (reference value: 68%); type: functional; conditions: read-out: Activity
[30] = Oral bioavailability in ICR mouse plasma at 10 mg/kg measured up to 24 hrs by LC-MS/MS analysis; type: ADME, organism-based
[31] = target: T1, Signal transducer and activator of transcription 3; assay: Binding affinity to human STAT3-SH2 domain (127 to 722 residues) assessed as dissociation constant by MST assay
AGS [32] = assay: Induction of apoptosis in human AGS cells assessed as early apoptic cells 20 nM incubated for 48 hrs by FITC-annexin V/propidium iodide staining based flow cytometry (reference value: 0.55%); type: functional
[33] = Toxicity in BALB/c nude mouse xenografted with human MKN-45 cells assessed as kidney damage at 25 to 50 mg/kg, po qd administered for 5 weeks by H and E staining based analysis; type: organism-based; conditions: in vivo, 840 h, dose 25-50 mg/kg
MKN-45 [34] = assay: Inhibition of mitochondrial respiration in human MKN-45 cells assessed as oxygen consumption rate incubated for 1 hr by Seahorse XF24 extracellular flux analyzer; type: functional, cell-based; conditions: dose 1-100 nM, DDE = dose-dependent effect

inhibition [3]: 100%
inhibition [9]: Dde
inhibition [11]: Active
inhibition [12]: Dde
inhibition [13]: Dde
Activity [14]: Active
IC50 (Cytochrome P450 2D6): > 50000 nM
inhibition [16]: Dde
IC50 (Cytochrome P450 2C19): 15900 nM
IC50 (AGS [17]): 13.5 nM
inhibition [20]: 100%
inhibition [21]: Tde
Activity [22]: Active
Kd [23]: 76.4 nM
inhibition [24]: Tde
AUC(0-t) at 24 h [27]: 1730 ng·h/mL
inhibition [28]: Dde
bioavailability [30]: 54.4%
Kd [31]: 114 nM
SMILES: O=C(c1ccc(-c2noc(-c3ccc(C(F)(F)F)cc3)n2)cc1)N1CCN(Cc2ccc(OCC(F)(F)F)cc2)CC1
Activity (MKN-45 [1]): Active
Activity (MKN-45 [2]): Dde
Activity [4]: Non-Toxic
inhibition (MKN-45 [5]): Active
Activity (AGS [6]): 2.57%
Activity (MKN-45 [7]): 22%
Activity (AGS [8]): 4.79%
Ratio IC50 (AGS [10]): 30
inhibition (MKN-45 [15]): Active
Activity [18]: Non-Toxic
inhibition [19]: Active
inhibition (MKN-45 [25]): Active
Activity [26]: Non-Toxic
viability at 0.02 µM (MKN-45 [29]): 60.7%
Activity (AGS [32]): 3.8%
Activity [33]: Non-Toxic
inhibition (MKN-45 [34]): Dde

From ChEMBL document CHEMBL5108044, “Discovery of a Novel Potent STAT3 Inhibitor HP590 with Dual p-Tyr705/Ser727 Inhibitory Activity for Gastric Cancer Treatment” (J Med Chem, 2022)
